Test [1] addresses T1, Adenosine receptor A1 (Homo sapiens, UniProt P30542).
T1 sequence (P30542 whole entry): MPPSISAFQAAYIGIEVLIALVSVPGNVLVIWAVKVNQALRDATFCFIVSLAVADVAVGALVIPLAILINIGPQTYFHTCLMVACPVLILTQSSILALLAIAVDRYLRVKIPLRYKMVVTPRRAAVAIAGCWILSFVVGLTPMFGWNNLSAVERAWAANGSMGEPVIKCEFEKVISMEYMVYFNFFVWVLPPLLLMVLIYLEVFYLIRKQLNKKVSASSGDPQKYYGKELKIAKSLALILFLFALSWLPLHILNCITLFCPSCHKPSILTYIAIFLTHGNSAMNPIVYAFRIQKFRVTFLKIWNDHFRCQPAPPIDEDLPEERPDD
The experiment in a line: (§1) Agonist activity at human recombinant adenosine A1 receptor transfected in CHO cells assessed as inhibition of forskolin-induced adenylyl cyclase activity. The format is functional, cell-based.

Test [2] has as its target T2, Adenosine receptor A1 (Homo sapiens) (UniProt P30542).
T2 sequence (whole entry): T1 sequence (P30542 whole entry)
The description is as §1. The format is functional, cell-based.

For test [3], the target named is T1, Adenosine receptor A1. The experiment in a line: Displacement of [3H]-CCPA from human recombinant adenosine A1 receptor transfected in CHO cells. It is filed as cell-based. For orientation: Displacement assays read how much labelled ligand stays bound in the presence of the test substance.
Test [4] concerns the target T3, Adenosine receptor A2a (Homo sapiens, UniProt P29274). The test is described as follows: Displacement of [3H]-NECA from human recombinant adenosine A2A receptor transfected in CHO cells. The format is cell-based.
For test [5], the target named is T4, Adenosine receptor A3 (Homo sapiens, UniProt P0DMS8).
T4 sequence (P0DMS8 whole entry): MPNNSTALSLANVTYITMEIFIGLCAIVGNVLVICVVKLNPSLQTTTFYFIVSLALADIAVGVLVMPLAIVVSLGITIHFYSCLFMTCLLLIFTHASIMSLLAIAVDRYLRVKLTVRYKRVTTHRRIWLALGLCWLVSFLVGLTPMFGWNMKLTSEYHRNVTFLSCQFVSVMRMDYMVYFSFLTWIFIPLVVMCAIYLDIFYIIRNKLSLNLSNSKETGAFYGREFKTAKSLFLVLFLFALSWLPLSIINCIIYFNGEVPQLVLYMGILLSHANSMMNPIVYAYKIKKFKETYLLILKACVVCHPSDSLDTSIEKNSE
The experiment in a line: Antagonist activity at human recombinant adenosine A3 receptor transfected in CHO cells assessed as reversal of NECA-induced inhibition of forskolin-induced adenylyl cyclase activity. The format is functional, cell-based.

In test [6] the target is T3, Adenosine receptor A2a. The test is described as follows: Agonist activity at human recombinant adenosine A2A receptor transfected in CHO cells assessed as induction of adenylyl cyclase activity. It is filed as functional, cell-based.
Test [7] concerns the target T4, Adenosine receptor A3. The experiment in a line: Displacement of [3H]-HEMADO from human recombinant adenosine A3 receptor transfected in CHO cells. The format is cell-based.
In test [8] the target is T5, Adenosine receptor A2b (Homo sapiens) (UniProt P29275).
T5 sequence (whole entry): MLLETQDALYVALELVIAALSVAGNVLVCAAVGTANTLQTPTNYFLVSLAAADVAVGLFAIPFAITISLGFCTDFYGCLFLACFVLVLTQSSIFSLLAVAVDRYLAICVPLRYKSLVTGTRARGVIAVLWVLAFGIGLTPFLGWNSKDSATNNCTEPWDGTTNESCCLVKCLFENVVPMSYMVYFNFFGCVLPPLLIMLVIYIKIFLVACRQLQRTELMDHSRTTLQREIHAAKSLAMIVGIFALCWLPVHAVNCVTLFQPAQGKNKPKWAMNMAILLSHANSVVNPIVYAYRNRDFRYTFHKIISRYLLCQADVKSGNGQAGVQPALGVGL
The test is described as follows: (§2) Agonist activity at human recombinant adenosine A2B receptor transfected in CHO cells assessed as induction of adenylyl cyclase activity. It is filed as functional, cell-based.

The target of test [9] is T6, Adenosine receptor A2b (Homo sapiens, UniProt P29275).
T6 sequence (P29275 whole entry): T5 sequence (whole entry)
Described as §2. The format is functional, cell-based.

Test [10] has as its target T5, Adenosine receptor A2b (Homo sapiens). The test is described as follows: Partial agonist activity at human recombinant adenosine A2B receptor transfected in CHO cells assessed as induction of adenylyl cyclase activity relative to NECA. The format is functional, cell-based.
The species entered for test [11] is Homo sapiens. The test is described as follows: Selectivity ratio of Ki for human recombinant adenosine A2A receptor to Ki for human recombinant adenosine A3 receptor.
The species named for test [12] is Homo sapiens. The experiment in a line: Selectivity ratio of Ki for human recombinant adenosine A2A receptor to Ki for human recombinant adenosine A1 receptor.

Molecules are shown by their SMILES. pEC50, pKi: −log10 of the molar value. Calls of active or inactive are those of the source. The rule behind the calls is not given here. Some results are limits rather than exact numbers.

T3 sequence (P29274 whole entry): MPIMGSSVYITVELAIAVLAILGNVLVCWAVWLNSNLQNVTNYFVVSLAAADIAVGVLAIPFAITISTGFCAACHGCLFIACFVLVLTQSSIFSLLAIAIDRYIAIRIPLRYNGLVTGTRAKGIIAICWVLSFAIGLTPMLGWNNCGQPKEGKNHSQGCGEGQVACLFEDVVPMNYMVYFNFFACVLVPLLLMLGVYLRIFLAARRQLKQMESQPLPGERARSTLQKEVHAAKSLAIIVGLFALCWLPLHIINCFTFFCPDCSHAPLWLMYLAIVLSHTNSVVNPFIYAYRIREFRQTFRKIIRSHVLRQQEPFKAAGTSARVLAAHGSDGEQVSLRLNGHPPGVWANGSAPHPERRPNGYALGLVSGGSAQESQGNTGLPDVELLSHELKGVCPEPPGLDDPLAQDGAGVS

Usually pEC50 stands for the EC50 on a negative log10 scale, so that one unit is a factor of ten. Usually pKi stands for the Ki on a negative log10 scale, so that one unit is a factor of ten. As for `CCn1nnc([C@H]2O[C@@H](n3cnc4c(N[C@H]5C[C@@H]6CC[C@@H]5C6)nc(Cl)nc43)[C@H](O)[C@@H]2O)n1` (racemic), the pEC50 in test [1] is 7.99; in [5], 6.14; in test [6] it was 7.89; in [9], less than 4.52. In addition, the Efficacy in test [2], in test [6] and in test [8] was more than 90% in each case. The pKi in test [3] is 9.14; in [4], 6.79; in test [7], 7.79.
In the case of `CCn1nnc([C@H]2O[C@@H](n3cnc4c(NCc5ccccc5I)nc(Cl)nc43)[C@H](O)[C@@H]2O)n1`, the pEC50 in [1] was 7.19; in test [5], 7.88; in [6] it was 8.04; in [9], 6.08. The Efficacy was more than 90% in test [2] and 76% in test [10]. The pKi in test [3] was 8.62; in test [4], 6.97; in test [7] it was 9.23.
Regarding `CCn1nnc([C@H]2O[C@@H](n3cnc4c(NC5CC5)nc(Cl)nc43)[C@H](O)[C@@H]2O)n1`, the pEC50 in test [1] was 8.44; in test [5], 7.40; in [6], 8.27; in test [9] it was 5.94. The Efficacy in test [2], in test [6] and in test [8] was more than 90% throughout. Moreover, the results for the pKi in test [3], in test [4] and in test [7] were 9.51, 7.21 and 8.41, respectively.
Take `CCn1nnc([C@H]2O[C@@H](n3cnc4c(N[C@H]5C[C@@H]6CC[C@@H]5C6)ncnc43)[C@H](O)[C@@H]2O)n1` (racemic): the negative-log EC50 (pEC50) is 8.33 in [1], 7.08 in test [5], 8.11 in test [6] and 6.00 in test [9]. The Efficacy in test [2], in [6] and in [8] was more than 90% throughout. Moreover, the pKi in test [3] was 9.34; in [4], 7.19; in [7] it was 8.05.
In the case of `CCn1nnc([C@H]2O[C@@H](n3cnc4c(Nc5ccc(Cl)cc5F)nc(Cl)nc43)[C@H](O)[C@@H]2O)n1`, the pEC50 in test [1] was 7.19; in test [5], 7.43; in test [6], 7.54. The Efficacy in [2], in [6] and in [8] was more than 90% in each case. Also, the pKi in [3] is 8.78; in [4], 6.65; in test [7] it was 8.33.
Turning to `CCn1nnc([C@H]2O[C@@H](n3cnc4c(NC5CC5)ncnc43)[C@H](O)[C@@H]2O)n1`, the pEC50 in [1] was 8.06; in test [5], 7.29; in test [6] it was 8.01; in test [9], 6.17. The Efficacy in test [2], in [6] and in test [8] was more than 90% throughout. Further, the pKi was 9.17 in test [3], 7.03 in test [4] and 8.10 in test [7].
Turning to `CCn1nnc([C@H]2O[C@@H](n3cnc4c(Nc5ccc(Cl)cc5F)ncnc43)[C@H](O)[C@@H]2O)n1`, the pEC50 in test [1] is 7.99; in test [5], 7.47; in [6], 8.08; in test [9], 6.28. Besides, the Efficacy in [2], in test [6] and in [8] was more than 90% throughout. In addition, the pKi was 9.36 in [3], 7.11 in test [4] and 8.58 in test [7].
Consider `CCn1nnc([C@H]2O[C@@H](n3cnc4c(NC)nc(Cl)nc43)[C@H](O)[C@@H]2O)n1`, for which the pEC50 in [1] is 6.60; in test [5], 8.11; in test [6], 6.62; in [9] it was 5.45. For the same compound, the Efficacy in test [2] and in test [6] was more than 90% in each case. Moreover, in test [10], the Activity came out at 75%. In addition, the pKi in test [3] is 8.07; in [4], 5.47; in [7], 9.37. Moreover, the Ratio Ki in test [11] was 7800; in [12], 390.
For the compound `CCn1nnc([C@H]2O[C@@H](n3cnc4c(N)nc(Cl)nc43)[C@H](O)[C@@H]2O)n1`, the pEC50 was 7.70 in test [1], 7.50 in test [5], 8.42 in [6] and 6.27 in test [9]. The Efficacy in [2], in test [6] and in [8] was more than 90% each time. The results for the pKi in test [3], in test [4] and in test [7] were 9.02, 7.68 and 8.74, respectively.
Consider `OC[C@H]1O[C@@H](n2cnc3c(NC4CCCC4)nc(Cl)nc32)[C@H](O)[C@@H]1O`, for which the inhibition result in test [2] was “Active”.
For `CCn1nnc([C@H]2O[C@@H](n3cnc4c(NC)ncnc43)[C@H](O)[C@@H]2O)n1`, the pEC50 in test [1] was 7.01; in test [5] it was 8.20; in [6], 5.77; in [9], 5.83. Besides, the Efficacy in test [2], in test [6] and in [8] was more than 90% each time. The pKi in [3] was 8.45; in test [4], 6.11; in test [7], 9.32.
Turning to `CCn1nnc([C@H]2O[C@@H](n3cnc4c(N)ncnc43)[C@H](O)[C@@H]2O)n1`, the pEC50 in test [1] is 7.58; in test [5], 7.03; in test [6] it was 8.63; in test [9], 6.46. Moreover, the Efficacy in test [2], in test [6] and in [8] was more than 90% each time. For the same compound, the pKi in [3] was 9.04; in test [4], 8.09; in test [7], 8.41.
Turning to `CCn1nnc([C@H]2O[C@@H](n3cnc4c(NC5CCCO5)nc(Cl)nc43)[C@H](O)[C@@H]2O)n1` (stereo partly specified), the pEC50 in [1] was 8.13; in test [5] it was 6.98; in [6], 7.48; in test [9], 5.50. Moreover, the Efficacy in test [2], in test [6] and in test [8] was more than 90% throughout. Moreover, the pKi in [3] is 8.97; in test [4] it was 6.06; in test [7], 8.02.
Take `CCn1nnc([C@H]2O[C@@H](n3cnc4c(NC5CCCO5)ncnc43)[C@H](O)[C@@H]2O)n1` (stereo partly specified): the pEC50 in [1] was 8.06; in test [5], 7.21; in test [6] it was 7.60; in [9], 5.87. Also, the Efficacy in test [2], in test [6] and in test [8] was more than 90% each time. For the same compound, the results for the pKi in [3], in test [4] and in [7] were 8.91, 6.26 and 7.81, respectively.

For the origin of these results see ChEMBL document CHEMBL3414438, “5'-C-Ethyl-tetrazolyl-N(6)-substituted adenosine and 2-chloro-adenosine derivatives as highly potent dual acting A1 adenosine receptor agonists and A3 adenosine receptor antagonists” (J Med Chem, 2015).
